Measurements taken from patent US7138546B2, “Compounds and compositions for delivering active agents” (Emisphere Technologies, Inc., priority 2000, dated 2006).

Row | melting point | Structure (SMILES)
1 | 203 to 205 °C | O=C(COc1ccccc1O)Nc1cc(Cl)ccc1O [Compound 1, N-(5-Chloro-2-hydroxyphenyl)-2-(2-hydroxyphenoxy)acetamide]
2 | 154 to 156 °C | CCOCCC(=O)Nc1cc(Cl)ccc1O [Compound 2, N-(5-Choro-2-hydroxyphenyl)-3-ethoxypropanamide]
